In assay [1] the target is RAC-beta serine/threonine-protein kinase (Homo sapiens) (UniProt P31751). Briefly: Inhibition of AKT2 (unknown origin) assessed as remaining activity at 1 uM by Kinome scan method relative to control.
In assay [2] the target is Proto-oncogene tyrosine-protein kinase ROS (Homo sapiens) (UniProt P08922). Kind of assay: Inhibition of ROS1 (unknown origin) assessed as remaining activity at 1 uM by Kinome scan method relative to control.
The subject of assay [3] is Epidermal growth factor receptor (Homo sapiens), P00533 [T790M]. Kind of assay: Inhibition of human EGFR T790M mutant assessed as residual activity at 1 uM using PolyEY as substrate in presence of 33P-ATP by ProQinase assay relative to control.
The target in assay [4] is Eukaryotic translation initiation factor 2-alpha kinase 3 (Homo sapiens) (UniProt Q9NZJ5). Briefly: Inhibition of human EIF2AK3 assessed as residual activity at 1 uM using casein as substrate in presence of 33P-ATP by ProQinase assay relative to control.
Sequence of Eukaryotic translation initiation factor 2-alpha kinase 3 (Homo sapiens) (Q9NZJ5 whole entry): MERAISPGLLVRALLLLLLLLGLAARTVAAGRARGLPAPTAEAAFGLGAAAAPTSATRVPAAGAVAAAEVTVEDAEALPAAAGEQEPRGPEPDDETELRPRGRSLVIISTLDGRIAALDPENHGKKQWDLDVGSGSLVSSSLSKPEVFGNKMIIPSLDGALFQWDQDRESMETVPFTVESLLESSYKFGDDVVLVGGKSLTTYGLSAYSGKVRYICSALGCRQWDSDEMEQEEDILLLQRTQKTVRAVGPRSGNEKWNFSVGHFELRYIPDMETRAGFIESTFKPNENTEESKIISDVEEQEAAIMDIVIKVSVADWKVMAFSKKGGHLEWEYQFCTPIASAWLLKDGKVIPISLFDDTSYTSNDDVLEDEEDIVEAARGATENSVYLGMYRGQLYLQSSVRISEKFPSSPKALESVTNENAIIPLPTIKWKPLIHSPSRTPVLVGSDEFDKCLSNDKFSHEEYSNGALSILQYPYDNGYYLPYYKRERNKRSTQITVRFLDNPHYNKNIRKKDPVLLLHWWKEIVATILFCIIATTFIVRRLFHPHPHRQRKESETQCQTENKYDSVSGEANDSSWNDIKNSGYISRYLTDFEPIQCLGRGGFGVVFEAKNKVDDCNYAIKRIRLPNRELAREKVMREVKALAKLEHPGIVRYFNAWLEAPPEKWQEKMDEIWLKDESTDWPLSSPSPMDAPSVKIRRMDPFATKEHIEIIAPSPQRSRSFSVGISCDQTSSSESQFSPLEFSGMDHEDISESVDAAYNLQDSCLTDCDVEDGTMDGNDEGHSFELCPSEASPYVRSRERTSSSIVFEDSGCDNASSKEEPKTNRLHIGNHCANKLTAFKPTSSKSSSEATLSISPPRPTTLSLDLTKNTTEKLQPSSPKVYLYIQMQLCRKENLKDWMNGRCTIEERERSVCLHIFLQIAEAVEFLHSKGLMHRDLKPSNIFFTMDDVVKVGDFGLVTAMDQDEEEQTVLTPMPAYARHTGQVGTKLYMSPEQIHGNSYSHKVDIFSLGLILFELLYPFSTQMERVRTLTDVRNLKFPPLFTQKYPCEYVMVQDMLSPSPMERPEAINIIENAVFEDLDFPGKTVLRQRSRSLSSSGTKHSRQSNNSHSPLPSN
The test system of assay [5] is Hepatocyte growth factor receptor (Homo sapiens), P08581 [F1200I]. Kind of assay: Inhibition of human MET F1200I mutant assessed as residual activity at 1 uM using poly(Ala,Glu,Lys,Tyr)6:2:5:1 as substrate in presence of 33P-ATP by ProQinase assay relative to control.
Assay [6] addresses Dual specificity mitogen-activated protein kinase kinase 1 (Homo sapiens) (UniProt Q02750). Kind of assay: Inhibition of human MEK1 assessed as residual activity at 1 uM using ERK2-KR as substrate in presence of 33P-ATP by ProQinase assay relative to control.
Assay [7] concerns the target Protein kinase C delta type (Homo sapiens) (UniProt Q05655). Briefly: Inhibition of PRKCD (unknown origin) assessed as remaining activity at 1 uM by Kinome scan method relative to control.
Assay [8] deals with Ribosomal protein S6 kinase alpha-5 (Homo sapiens) (UniProt O75582). Briefly: Inhibition of N-terminal kinase domain RPS6KA5 (unknown origin) assessed as remaining activity at 1 uM by Kinome scan method relative to control.
Sequence of Ribosomal protein S6 kinase alpha-5 (Homo sapiens) (O75582 whole entry, looked up, the tested form may be a part): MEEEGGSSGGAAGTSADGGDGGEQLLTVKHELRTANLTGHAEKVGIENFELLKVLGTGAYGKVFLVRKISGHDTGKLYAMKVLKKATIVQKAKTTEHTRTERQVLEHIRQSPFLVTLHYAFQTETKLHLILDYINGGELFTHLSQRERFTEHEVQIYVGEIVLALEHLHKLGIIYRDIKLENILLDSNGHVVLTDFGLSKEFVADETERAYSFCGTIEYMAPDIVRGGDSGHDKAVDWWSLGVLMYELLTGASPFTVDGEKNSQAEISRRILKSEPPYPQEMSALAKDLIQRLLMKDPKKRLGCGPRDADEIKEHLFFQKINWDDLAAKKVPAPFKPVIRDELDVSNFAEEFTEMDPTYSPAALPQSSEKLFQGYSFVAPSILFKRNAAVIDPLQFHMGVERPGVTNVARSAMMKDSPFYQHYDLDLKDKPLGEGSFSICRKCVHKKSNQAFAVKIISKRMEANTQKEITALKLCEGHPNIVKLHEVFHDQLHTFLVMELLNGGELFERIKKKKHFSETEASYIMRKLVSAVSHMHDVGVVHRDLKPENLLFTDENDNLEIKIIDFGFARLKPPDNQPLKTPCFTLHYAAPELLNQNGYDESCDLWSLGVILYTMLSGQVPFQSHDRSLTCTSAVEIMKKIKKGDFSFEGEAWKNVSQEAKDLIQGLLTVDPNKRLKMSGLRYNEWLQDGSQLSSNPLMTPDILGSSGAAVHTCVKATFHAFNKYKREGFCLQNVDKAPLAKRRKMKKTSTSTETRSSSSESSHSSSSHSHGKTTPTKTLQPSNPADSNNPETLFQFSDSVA
In assay [9] the test system is Epidermal growth factor receptor (Homo sapiens), P00533 [G719S]. Briefly: Inhibition of human EGFR G719S mutant assessed as residual activity at 1 uM using PolyEY as substrate in presence of 33P-ATP by ProQinase assay relative to control.
Assay [10] has as its target Receptor tyrosine-protein kinase erbB-4 (Homo sapiens) (UniProt Q15303). Kind of assay: Inhibition of human ERBB4 assessed as residual activity at 1 uM using polyEy as substrate in presence of 33P-ATP by ProQinase assay relative to control.
The target of assay [11] is Ribosomal protein S6 kinase alpha-5 (Homo sapiens) (UniProt O75582). Briefly: Inhibition of C-terminal kinase domain RPS6KA5 (unknown origin) assessed as remaining activity at 1 uM by Kinome scan method relative to control.
The target of assay [12] is T1, Serine/threonine-protein kinase Chk1 (Homo sapiens) (UniProt O14757).
T1 sequence (whole entry): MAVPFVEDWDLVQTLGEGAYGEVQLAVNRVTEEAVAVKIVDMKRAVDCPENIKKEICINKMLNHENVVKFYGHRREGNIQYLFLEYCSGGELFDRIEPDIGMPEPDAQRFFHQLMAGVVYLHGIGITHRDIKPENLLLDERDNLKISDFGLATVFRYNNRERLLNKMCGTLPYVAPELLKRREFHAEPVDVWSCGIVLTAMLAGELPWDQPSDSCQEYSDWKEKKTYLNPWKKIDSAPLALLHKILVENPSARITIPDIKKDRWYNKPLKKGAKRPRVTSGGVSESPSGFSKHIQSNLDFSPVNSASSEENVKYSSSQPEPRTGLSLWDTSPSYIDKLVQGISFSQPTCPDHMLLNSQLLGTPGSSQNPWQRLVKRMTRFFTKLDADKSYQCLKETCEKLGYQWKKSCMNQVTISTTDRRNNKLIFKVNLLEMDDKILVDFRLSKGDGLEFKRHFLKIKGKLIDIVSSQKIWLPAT
Kind of assay: Inhibition of human CHK1 assessed as residual activity at 1 uM using RBER-CHKtide as substrate in presence of 33P-ATP by ProQinase assay relative to control.

Assay [13] concerns Tyrosine-protein kinase ABL1 (Homo sapiens), P00519 [H396P]. Kind of assay: Inhibition of human ABL1 H396P mutant assessed as residual activity at 1 uM using Poly(Ala,Glu,Lys,Tyr)6:2:5:1 as substrate in presence of 33P-ATP by ProQinase assay relative to control.
Assay [14] concerns the target Activin receptor type-1 (Homo sapiens) (UniProt Q04771). Kind of assay: Inhibition of human ACVR1 assessed as residual activity at 1 uM using RBER-GSK3(14-27) as substrate in presence of 33P-ATP by ProQinase assay relative to control.
The target in assay [15] is T2, Serine/threonine-protein kinase 17A (Homo sapiens) (UniProt Q9UEE5).
T2 sequence (whole entry): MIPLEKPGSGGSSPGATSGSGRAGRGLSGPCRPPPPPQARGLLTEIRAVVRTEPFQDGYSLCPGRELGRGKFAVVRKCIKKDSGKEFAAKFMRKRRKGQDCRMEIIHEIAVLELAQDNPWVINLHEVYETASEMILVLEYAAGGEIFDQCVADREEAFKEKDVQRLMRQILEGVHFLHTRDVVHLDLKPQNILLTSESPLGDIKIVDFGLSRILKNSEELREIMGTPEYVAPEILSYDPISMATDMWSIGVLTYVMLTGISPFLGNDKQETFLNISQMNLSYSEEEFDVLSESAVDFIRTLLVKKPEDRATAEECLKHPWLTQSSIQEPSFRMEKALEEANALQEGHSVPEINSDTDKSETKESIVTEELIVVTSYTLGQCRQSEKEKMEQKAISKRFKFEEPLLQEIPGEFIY
Kind of assay: Inhibition of human STK17A assessed as residual activity at 1 uM using RB-CTF as substrate in presence of 33P-ATP by ProQinase assay relative to control.

In assay [16] the target is Death-associated protein kinase 3 (Homo sapiens) (UniProt O43293). Kind of assay: Inhibition of human DAPK3 assessed as residual activity at 1 uM using RBER-GSK3 as substrate in presence of 33P-ATP by ProQinase assay relative to control.

Each structure is given as a SMILES string.

Sequence of Activin receptor type-1 (Homo sapiens) (Q04771 whole entry): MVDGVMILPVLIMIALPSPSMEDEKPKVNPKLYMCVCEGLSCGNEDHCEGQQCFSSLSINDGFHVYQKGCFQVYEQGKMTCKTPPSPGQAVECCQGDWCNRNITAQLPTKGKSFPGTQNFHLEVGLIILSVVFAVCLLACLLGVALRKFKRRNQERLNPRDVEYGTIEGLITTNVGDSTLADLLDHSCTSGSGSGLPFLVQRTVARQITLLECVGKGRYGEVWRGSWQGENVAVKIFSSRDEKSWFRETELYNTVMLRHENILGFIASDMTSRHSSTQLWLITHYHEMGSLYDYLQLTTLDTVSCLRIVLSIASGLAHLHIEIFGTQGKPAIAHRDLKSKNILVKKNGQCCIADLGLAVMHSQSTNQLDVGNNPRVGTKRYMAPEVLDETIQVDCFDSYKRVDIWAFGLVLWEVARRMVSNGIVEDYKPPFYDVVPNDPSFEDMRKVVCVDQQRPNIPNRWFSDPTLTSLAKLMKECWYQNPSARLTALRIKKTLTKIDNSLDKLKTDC
Sequence of Dual specificity mitogen-activated protein kinase kinase 1 (Homo sapiens) (Q02750 whole entry): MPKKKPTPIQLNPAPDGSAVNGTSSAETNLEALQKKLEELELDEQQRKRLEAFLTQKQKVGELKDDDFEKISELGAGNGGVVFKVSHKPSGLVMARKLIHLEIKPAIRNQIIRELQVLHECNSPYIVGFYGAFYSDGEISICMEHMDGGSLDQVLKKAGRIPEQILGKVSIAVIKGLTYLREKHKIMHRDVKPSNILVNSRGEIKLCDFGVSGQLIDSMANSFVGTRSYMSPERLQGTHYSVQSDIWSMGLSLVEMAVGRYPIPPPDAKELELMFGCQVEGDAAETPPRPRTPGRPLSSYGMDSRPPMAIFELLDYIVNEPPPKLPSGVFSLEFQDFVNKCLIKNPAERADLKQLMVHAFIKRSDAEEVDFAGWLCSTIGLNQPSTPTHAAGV
Sequence of Receptor tyrosine-protein kinase erbB-4 (Homo sapiens) (Q15303 whole entry, the tested form may be a part): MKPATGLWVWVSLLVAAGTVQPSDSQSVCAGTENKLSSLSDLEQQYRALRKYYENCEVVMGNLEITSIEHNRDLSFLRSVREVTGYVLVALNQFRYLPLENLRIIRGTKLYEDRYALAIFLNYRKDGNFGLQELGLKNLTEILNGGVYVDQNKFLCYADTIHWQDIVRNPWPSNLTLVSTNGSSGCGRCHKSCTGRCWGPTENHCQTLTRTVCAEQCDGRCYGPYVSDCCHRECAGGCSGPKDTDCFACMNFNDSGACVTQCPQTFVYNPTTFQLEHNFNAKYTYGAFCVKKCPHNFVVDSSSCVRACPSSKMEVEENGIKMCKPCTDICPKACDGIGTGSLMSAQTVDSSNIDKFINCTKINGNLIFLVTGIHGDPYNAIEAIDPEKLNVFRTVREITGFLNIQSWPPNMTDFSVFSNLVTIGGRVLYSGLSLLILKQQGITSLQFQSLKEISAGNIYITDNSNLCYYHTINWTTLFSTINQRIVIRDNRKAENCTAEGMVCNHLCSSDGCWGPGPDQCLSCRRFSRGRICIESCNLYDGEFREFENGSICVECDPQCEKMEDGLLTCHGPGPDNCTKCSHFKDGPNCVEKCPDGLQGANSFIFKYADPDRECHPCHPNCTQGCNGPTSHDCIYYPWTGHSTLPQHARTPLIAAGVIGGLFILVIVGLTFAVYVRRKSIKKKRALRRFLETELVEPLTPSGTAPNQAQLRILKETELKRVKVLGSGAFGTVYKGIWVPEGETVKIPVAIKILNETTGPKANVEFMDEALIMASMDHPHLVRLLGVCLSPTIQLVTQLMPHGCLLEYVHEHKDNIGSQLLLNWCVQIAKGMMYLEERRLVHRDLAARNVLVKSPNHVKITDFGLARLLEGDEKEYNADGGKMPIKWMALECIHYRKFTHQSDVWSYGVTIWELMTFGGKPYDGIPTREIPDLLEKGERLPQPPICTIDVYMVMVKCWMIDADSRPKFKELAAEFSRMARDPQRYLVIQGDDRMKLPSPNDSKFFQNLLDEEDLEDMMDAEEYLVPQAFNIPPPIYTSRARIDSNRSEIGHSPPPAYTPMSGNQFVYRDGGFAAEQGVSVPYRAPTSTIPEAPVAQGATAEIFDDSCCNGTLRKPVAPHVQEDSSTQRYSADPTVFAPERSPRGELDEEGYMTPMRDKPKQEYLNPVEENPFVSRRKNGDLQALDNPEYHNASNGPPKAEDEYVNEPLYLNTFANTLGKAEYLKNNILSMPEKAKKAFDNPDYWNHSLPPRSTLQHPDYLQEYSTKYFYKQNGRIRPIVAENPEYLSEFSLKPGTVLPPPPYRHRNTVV
Sequence of Protein kinase C delta type (Homo sapiens) (Q05655 whole entry, looked up, the tested form may be a part): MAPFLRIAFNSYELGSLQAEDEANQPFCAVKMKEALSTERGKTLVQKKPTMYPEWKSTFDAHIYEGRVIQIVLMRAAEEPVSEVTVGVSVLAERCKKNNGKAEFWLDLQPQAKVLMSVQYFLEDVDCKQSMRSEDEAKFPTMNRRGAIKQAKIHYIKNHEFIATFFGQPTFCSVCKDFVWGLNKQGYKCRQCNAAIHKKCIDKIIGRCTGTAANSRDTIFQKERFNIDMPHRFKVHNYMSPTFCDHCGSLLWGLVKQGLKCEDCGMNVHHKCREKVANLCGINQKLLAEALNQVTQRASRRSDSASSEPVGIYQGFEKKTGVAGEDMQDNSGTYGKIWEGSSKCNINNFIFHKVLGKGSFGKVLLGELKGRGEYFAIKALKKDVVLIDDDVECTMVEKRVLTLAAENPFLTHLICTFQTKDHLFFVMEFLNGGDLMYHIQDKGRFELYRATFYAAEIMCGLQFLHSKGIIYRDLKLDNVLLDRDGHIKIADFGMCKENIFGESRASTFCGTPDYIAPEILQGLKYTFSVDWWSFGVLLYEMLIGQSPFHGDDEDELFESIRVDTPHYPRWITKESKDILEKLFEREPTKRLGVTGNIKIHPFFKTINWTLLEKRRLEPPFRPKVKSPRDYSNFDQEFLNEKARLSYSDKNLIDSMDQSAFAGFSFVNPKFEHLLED

`O=C1c2ccc(Nc3ccc(F)cc3F)cc2CCc2ccc(OC[C@H](O)CO)cc21` [Skepinone-L]: the Activity was found to be 90% in assay [1]; 99% in [2]; 119% in assay [3]; 95% in [4]; 96% in [5]; 79% in [6]. Moreover, the Activity is 94% in assay [7]; 95% in assay [8]; 96% in [9]; 106% in assay [10]; 92% in [11]; 94% in assay [12]. Further, the Activity was 99% in assay [13], 94% in assay [14], 77% in assay [15] and 89% in assay [16].
